Data: patent US12448388B2, “PRMT5 inhibitors and uses thereof” (Gilead Sciences, Inc., priority 2023, dated 2025)
Read-outs that look alike come from different tables or passages of the source.

How the values were obtained:
[1] = system: HCT116 MTAP-deleted cell lines; test: Cell viability assay (CellTiter-Glo, 7 days), HCT116 MTAP-deleted; format: cell-based; settings: Homo sapiens, HCT-116, HCT116 MTAP-deleted, class symbols, read-out: CC50
Outline: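 HCT116 MTAP-deleted and wild-type cells exposed to serially diluted compound for 7 days at 37 °C, 5% CO2. Viability read by CellTiter-Glo luminescence; CC50 derived per line, with selectivity comparing WT to MTAP-deleted, limited solubility can inflate values marked *.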

[2] = system: Symmetric Di-methyl Arginine (SDMA) signal (PRMT5 inhibition) in HCT116 MTAP-deleted cells; test: Symmetric di-methyl arginine image-based high content screen assay (SDMA assay), HCT116 MTAP-deleted; format: cell-based; settings: for EC50: Homo sapiens, HCT-116, HCT116 MTAP-deleted, class symbols
Procedure: Symmetric di-methyl arginine image-based high content screen assay (SDMA assay) was performed in HCT116 WT and HCT116 MTAP-deleted cell lines to measure Symmetric Di-methyl Arginine (SDMA) signal reduction after selective PRMT5 inhibition in the MTAP-deleted cells. Control compounds were analyzed in parallel each time for quality control.
Briefly, the same compound plates were generated as mentioned in the previous section of Cell viability assay on Day −1. On Day 0, 800 HCT WT or HCT116 MTAP-deleted cell were seeded in compound-containing 384 well plates (50 μl per well) in RPMI 1640 media supplemented with 10% heat inactivated fetal bovine serum, Glutamax and penicillin streptomycin using EL460 liquid dispenser 5 μl cassette (BioTek, part no. 7170011). After equilibrating the plate at room temperature, the cells were incubated for 3 days inside the sealed incubator set at 37° C. with 90% humidity and 5% C02.
On Day 3, the cells were fixed by adding 45 μl of 8% neutralized formalin solution to each well using EL460 liquid dispenser 5 μl cassette and the cells were incubated for 30 minutes at room temperature. The formalin solution was washed off with […] phosphate buffered saline (dPBS), the 0.1% Triton X-100 solution in dPBS was used to permeabilize the cells for 15 minutes at room temperature. The triton solution was aspirated, 50 μl of Odyssey Blocking buffer +0.05% Tween20 was added and the plate was incubated at room temperature for 30 minutes.
The blocking solution was removed, a 20 μl of SDMA antibody (Cell Signaling Technology, Cat no. 13222) diluted 1:500 in Odyssey Blocking buffer +0.05% Tween20 was added and the plate was incubated at 4° C. overnight. Next day, the primary SDME antibody solution was washed from each well three times with 0.05% Tween20 in dPBS (PBST).
A 30 μl of the secondary antibody, a Goat anti-Rabbit Alexa Fluor Plus 488 (Invitrogen, Cat no. PIA32731) was diluted 1:500 in Odyssey Blocking buffer +0.05% Tween20 and the plate was incubated for 1.5 hours in dark at room temperature. The secondary antibody solution was removed, 30 μl of 5 mg/ml DAPI solution diluted 1:2000 in dPBS was added and the plate was incubated for 30 minutes in dark at room temperature. The DAPI solution was aspirated and the wells were washed six times with dPBS.
The SDMA signal and DAPI signal per cell were counted using a Cellomics CX7 LZR instrument reading under 488 and 405 nm laser, respectively. The SDMA signal was quantified by mean average intensity per cell from Alexa Fluor Plus 488 after the cell was defined with DAPI. The EC50 values for each compound after 3 days of treatment were calculated using 4 parameter non-linear logistical curve fit.
For the SDMA assay i.e. EC50 shown in Table 3A: A: EC50≤1 nM, B: 1 nM<EC50≤5 nM, C: EC50>5 nM.

[3] = HCT116 WT vs HCT116 MTAP-deleted
[4] = HCT116 WT versus HCT116 MTAP-deleted

Row | Compound | CC50 ([1]; cell viability assay) | EC50 selectivity [2, 3] | EC50 [2] | CC50 ([1]; cell viability) | EC50 selectivity [2, 4]
1 | Nc1nc2cc(F)c(C(=O)N3C[C@H](F)CC4Oc5cc(OC(F)(F)F)ccc5C43)cc2n2cncc12 (mixture of isomers) [Fg-57, rac-(4-amino-7-fluoroimidazo[1,5-a]quinoxalin-8-yl)((3R,4aS,9bS)-3-fluoro-7-(trifluoromethoxy)-3,4,4a,9b-tetrahydrobenzofuro[3,2-b]pyridin-1(2H)-yl)methanone] | < 100 nM | 137 | ≤ 1 nM |  | 
2 | Nc1nc2ccc(C(=O)N3C[C@H](F)CC4Oc5cc(OC(F)(F)F)ccc5C43)cc2n2cncc12 (mixture of isomers) [Fg-58, rac-(4-aminoimidazo[1,5-a]quinoxalin-8-yl)((3R,4aS,9bS)-3-fluoro-7-(trifluoromethoxy)-3,4,4a,9b-tetrahydrobenzofuro[3,2-b]pyridin-1(2H)-yl)methanone] | < 100 nM | 345 | 1 to 5 nM |  | 
3 | C[C@@H]1CN(C(=O)c2cc3c(cc2F)nc(N)c2cncn23)[C@H]2c3ccc(Br)c(F)c3C[C@H]2O1 (single isomer, unassigned) [Ff-163] |  |  | 1 to 5 nM | < 100 nM | 64
4 | Nc1nc2cc(F)c(C(=O)N3CCC[C@H]4OCc5cc(OC(F)F)ccc5[C@H]43)cc2n2cncc12 (single isomer, unassigned) [Ff-391] | < 100 nM | 26 | 1 to 5 nM |  | 
5 | Nc1nc2cc(F)c(C(=O)N3CCC[C@@H]4OCc5cc(OC(F)F)ccc5[C@@H]43)cc2n2cncc12 (single isomer, unassigned) [Ff-392] | < 100 nM | 68 | ≤ 1 nM |  | 
6 | C[C@H]1C[C@@H]2Oc3cc(C(F)(F)F)ccc3[C@@H]2N(C(=O)c2cc3c(cn2)nc(N)c2cncn23)C1 (single isomer, unassigned) [Ff-399] | < 100 nM | 47 | ≤ 1 nM |  | 
7 | Nc1nc2cnc(C(=O)N3CCC[C@@H]4Oc5cc(C(F)(F)F)ccc5[C@@H]43)cc2n2c(F)ncc12 (single isomer, unassigned) [Ff-625] | 100 to 1000 nM | 315 | > 5 nM |  | 
8 | Nc1nc2cnc(C(=O)N3CCC[C@@H]4Oc5cc(C(F)(F)F)ccc5[C@@H]43)cc2n2cnc(F)c12 (single isomer, unassigned) [Ff-626] | < 100 nM | 143 | 1 to 5 nM |  | 
9 | Nc1nc2ccc(C(=O)N3C[C@H](F)C[C@@H]4Oc5cc(C(F)(F)F)ccc5[C@@H]43)cc2n2cncc12 (single isomer, unassigned) [Ff-681] | < 100 nM | 313 | ≤ 1 nM |  | 
10 | Nc1nc2cnc(C(=O)N3CCC[C@@H]4Cc5cc(C(F)(F)F)ccc5[C@@H]43)cc2n2cncc12 (single isomer, unassigned) [Ff-687] | < 100 nM | 325 | ≤ 1 nM |  | 
11 | C[C@H]1C[C@@H]2Oc3cc(C(F)(F)F)ccc3[C@@H]2N(C(=O)c2ccc3nc(N)c4cncn4c3c2)C1 (single isomer, unassigned) [Ff-689] | < 100 nM | 59 | ≤ 1 nM |  | 
12 | CC(=O)N(C)N(Cc1ccc(C(F)(F)F)cn1)C(=O)c1ccc2nc(N)n3cncc3c2c1 [Fa-1, N′-acetyl-5-amino-N′-methyl-N-((5-(trifluoromethyl)pyridin-2-yl)methyl)imidazo[1,5-c]quinazoline-9-carbohydrazide] |  |  | > 5 nM | > 1000 nM | 152
13 | Cc1ncc2c(N)nc3ccc(C(=O)N(Cc4ccc(C(F)(F)F)cn4)N(C)c4ncccn4)cc3n12 [Fa-2, 4-amino-N′,1-dimethyl-N′-pyrimidin-2-yl-N-[[5-(trifluoromethyl)-2-pyridyl]methyl]imidazo[1,5-a]quinoxaline-8-carbohydrazide] |  |  | ≤ 1 nM | < 100 nM | 17
14 | Nc1nc2ccc(C(=O)N(Cc3ccc(C(F)(F)F)cn3)N3CCOCC3)cc2c2cncn12 [Fa-3, 5-amino-N-morpholino-N-((5-(trifluoromethyl)pyridin-2-yl)methyl)imidazo[1,5-c]quinazoline-9-carboxamide] |  |  | > 5 nM | > 1000 nM | 22
15 | Cc1ncn2c1c(N)nc1ccc(C(=O)N(Cc3ccc(C(F)(F)F)cc3F)N(C)C(=O)C3CC3)cc12 [Fa-4, 4-amino-N′-(cyclopropanecarbonyl)-N-(2-fluoro-4-(trifluoromethyl)benzyl)-N′,3-dimethylimidazo[1,5-a]quinoxaline-8-carbohydrazide] |  |  | 1 to 5 nM | < 100 nM | 74
16 | CC(=O)N(C)N(Cc1ccc(-c2cnn(C(F)(F)F)c2)cc1F)C(=O)c1ccc2nc(N)c3c(C)ncn3c2c1 [Fa-5, N′-acetyl-4-amino-N-(2-fluoro-4-(1-(trifluoromethyl)-1H-pyrazol-4-yl)benzyl)-N′,3-dimethylimidazo[1,5-a]quinoxaline-8-carbohydrazide] |  |  | 1 to 5 nM | < 100 nM | 101
17 | CC(=O)N(C)N(Cc1ccc(Cl)cc1C#N)C(=O)c1ccc2nc(N)c3c(C)ncn3c2c1 [Fa-6, N′-acetyl-4-amino-N-(4-chloro-2-cyanobenzyl)-N′,3-dimethylimidazo[1,5-a]quinoxaline-8-carbohydrazide] |  |  | 1 to 5 nM | < 100 nM | 129
18 | CC(=O)N(C)N(Cc1ccc(C(F)(F)F)cc1F)C(=O)c1ccc2nc(N)c3c(C)nc(C)n3c2c1 [Fa-7, N′-acetyl-4-amino-N-(2-fluoro-4-(trifluoromethyl)benzyl)-N′,1,3-trimethylimidazo[1,5-a]quinoxaline-8-carbohydrazide] |  |  | > 5 nM | 100 to 1000 nM | 159
19 | Nc1nc2ccc(C(=O)N(Cc3ccc(C(F)(F)F)cn3)N3CCOCC3)cc2n2cncc12 [Fb-2, 4-amino-N-morpholino-N-((5-(trifluoromethyl)pyridin-2-yl)methyl)imidazo[1,5-a]quinoxaline-8-carboxamide] |  |  | 1 to 5 nM | < 100 nM | 48
20 | CN(C(=O)C1CC1)N(Cc1ccc(C(F)(F)F)cc1F)C(=O)c1cc2c(cc1F)nc(N)c1cncn12 [Fb-3, 4-amino-N′-(cyclopropanecarbonyl)-7-fluoro-N-(2-fluoro-4-(trifluoromethyl)benzyl)-N′-methylimidazo[1,5-a]quinoxaline-8-carbohydrazide] |  |  | ≤ 1 nM | < 100 nM | 32
21 | Cc1ncc2c(N)nc3ccc(C(=O)N(Cc4ccc(C(F)(F)F)cc4F)N(C)C(=O)C4CC4)cc3n12 [Fb-4, 4-amino-N′-(cyclopropanecarbonyl)-N-(2-fluoro-4-(trifluoromethyl)benzyl)-N′,1-dimethylimidazo[1,5-a]quinoxaline-8-carbohydrazide] |  |  | 1 to 5 nM | 100 to 1000 nM | 249
22 | CC(=O)N(C)N(Cc1nc2cc(Cl)ccc2s1)C(=O)c1ccc2nc(N)c3cncn3c2c1 [Fb-5, N′-acetyl-4-amino-N-((5-chlorobenzo[d]thiazol-2-yl)methyl)-N′-methylimidazo[1,5-a]quinoxaline-8-carbohydrazide] |  |  | > 5 nM | 100 to 1000 nM | 320
